Data: patent US20260250318A1, “COMPOSITIONS AND METHODS FOR CROSSING THE BLOOD BRAIN BARRIER” (VOYAGER THERAPEUTICS, INC., priority 2022, published 2026)

Tests used:
Details in all cases: synthetic library passage 3, intravenous, relative to wild-type AAV9
[1] = system: brain, spinal cord, and DRG of the NHPs; assay: NGS fold enrichment of synthetic library (passage 3) in NHPs, first cross-species screen; format: in vivo, cynomolgus macaques (Macaca fascicularis)
Outline: (§1)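 Synthetic capsid library (passage 3) was given intravenously […] to NHPs aged 2-4 years and to BALB/c and C57Bl/6 mice (n=3 each, 6-8 weeks). After about 28 days in vivo, tissue RNA was RT-PCR amplified and NGS-sequenced; values are fold enrichment per variant relative to wild-type AAV9.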

[2] = system: brain; assay: NGS fold enrichment of synthetic library (passage 3) in C57Bl/6 mice, first cross-species screen; format: in vivo
Outline: as §1

[3] = system: brain; assay: NGS fold enrichment of synthetic library (passage 3) in BALB/c mice, first cross-species screen; format: in vivo
Outline: as §1

[4] = RNA from spinal cord of NHPs, NGS
[5] = RNA from brain of C57Bl/6 mice, NGS
[6] = RNA from brain of BALB/c mice, NGS

| Sequence | Fold enrichment over AAV9 in the brain of NHPs ([1]; RNA NGS, brain of NHPs) | Fold enrichment over AAV9 in the spinal cord of NHPs ([1]; RNA NGS, spinal cord of NHPs) | Fold enrichment over AAV9 in the brain of Mice (C57Bl/6) ([2]; RNA NGS, brain of C57Bl/6 mice) | Fold enrichment over AAV9 in the brain of Mice (BALB/c) ([3]; RNA NGS, brain of BALB/c mice) | Fold enrichment over AAV9 in the brain of NHPs ([1]; RNA from brain of NHPs, NGS) | Fold enrichment over AAV9 in the spinal cord of NHPs [1, 4] | Fold enrichment over AAV9 in the brain of Mice (C57Bl/6) [2, 5] | Fold enrichment over AAV9 in the brain of Mice (BALB/c) [3, 6] |
| --- | --- | --- | --- | --- | --- | --- | --- | --- |
| GSSPAPNSGQNQQT | 1.106 fold | 2.229 fold | 0.719 fold | 0.368 fold | – | – | – | – |
| GSSQNQQHDMRLRT | – | – | – | – | 1.386 fold | 2.645 fold | 0.669 fold | 0.552 fold |
| GSSQSTGYQPNQQT | 1.847 fold | 3.388 fold | 0.522 fold | 0.577 fold | – | – | – | – |
| GSSREFHSGQNQQT | – | – | – | – | 1.203 fold | 1.591 fold | 0.688 fold | 0.474 fold |
| GSSRVPVSGQNQQT | – | – | – | – | 1.385 fold | 13.191 fold | 0.870 fold | 0.485 fold |
| GSSSPGASGQNQQT | 1.717 fold | 1.244 fold | 1.378 fold | 0.660 fold | – | – | – | – |
| GSSTLVTIGKNQQT | 1.592 fold | 4.316 fold | 0.917 fold | 0.819 fold | – | – | – | – |
| GSSTRVDSGQNQQT | 1.584 fold | 2.774 fold | 0.704 fold | 0.660 fold | – | – | – | – |
| GSSTTIVSGQNHQT | 1.411 fold | 0.000 fold | 0.993 fold | 0.672 fold | – | – | – | – |
| GSSVGSPIGQNQQT | 1.584 fold | 3.574 fold | 1.059 fold | 0.706 fold | – | – | – | – |
| GSSVGVPSGQNQQT | – | – | – | – | 1.322 fold | 4.867 fold | 0.336 fold | 1.157 fold |
| GSSVNSMIGQNQQT | – | – | – | – | 1.239 fold | 0.000 fold | 0.976 fold | 0.580 fold |
| GSSVRSLVGQNQQT | 1.004 fold | 3.840 fold | 0.412 fold | 0.608 fold | – | – | – | – |
| GSSVRYEPKQNQQT | 1.063 fold | 1.564 fold | 0.450 fold | 0.501 fold | – | – | – | – |
| GSSVSPSSGQNQQT | 2.054 fold | 0.579 fold | 1.064 fold | 0.787 fold | – | – | – | – |
| GSTGIVSSGQNQQT | 1.570 fold | 0.927 fold | 2.141 fold | 1.046 fold | – | – | – | – |
| GSTGSHSAGQNQHT | 3.717 fold | 0.285 fold | 1.190 fold | 0.850 fold | – | – | – | – |
| GSTPAGVGGQNQQT | 1.663 fold | 2.733 fold | 0.593 fold | 0.477 fold | – | – | – | – |
| GSTVQDTRGQNQQT | 2.270 fold | 4.979 fold | 0.576 fold | 0.473 fold | – | – | – | – |
| GSVFGVPSGQNQQT | 1.474 fold | 1.248 fold | 0.685 fold | 0.213 fold | – | – | – | – |

| Sequence | Fold enrichment over AAV9 in the brain of NHPs ([1]; RNA NGS, brain of NHPs) | Fold enrichment over AAV9 in the spinal cord of NHPs ([1]; RNA NGS, spinal cord of NHPs) | Fold enrichment over AAV9 in the brain of Mice (C57Bl/6) ([2]; RNA NGS, brain of C57Bl/6 mice) | Fold enrichment over AAV9 in the brain of Mice (BALB/c) ([3]; RNA NGS, brain of BALB/c mice) | Fold enrichment over AAV9 in the brain of NHPs ([1]; RNA from brain of NHPs, NGS) | Fold enrichment over AAV9 in the spinal cord of NHPs [1, 4] | Fold enrichment over AAV9 in the brain of Mice (C57Bl/6) [2, 5] | Fold enrichment over AAV9 in the brain of Mice (BALB/c) [3, 6] |
| --- | --- | --- | --- | --- | --- | --- | --- | --- |
| GSVGSRPVGQNQQT | 1.442 fold | 11.363 fold | 1.182 fold | 0.716 fold | – | – | – | – |
| GSVHLSVTGQNQQT | 2.882 fold | 1.157 fold | 0.741 fold | 0.282 fold | – | – | – | – |
| GSVHMQNAGQNQQT | 1.034 fold | 3.608 fold | 1.004 fold | 0.625 fold | – | – | – | – |
| GSVLHSHAAQNQQT | 4.150 fold | 6.448 fold | 0.675 fold | 0.423 fold | – | – | – | – |
| GSVSDVRAGQNQQT | 2.661 fold | 1.647 fold | 0.267 fold | 0.747 fold | – | – | – | – |
| GSVSTHSSGQNQQT | 2.145 fold | 3.446 fold | 1.198 fold | 0.918 fold | – | – | – | – |
| GSVTHGISGQNQQT | 2.105 fold | 4.542 fold | 1.135 fold | 0.789 fold | – | – | – | – |
| GSYGMAASGQNQQT | 3.817 fold | 10.052 fold | 1.274 fold | 0.829 fold | – | – | – | – |
| GTASTYNSGQNQQT | 1.099 fold | 2.560 fold | 0.250 fold | 0.625 fold | – | – | – | – |
| GTDFGRQSSQNQQT | 2.346 fold | 3.196 fold | 1.021 fold | 0.797 fold | – | – | – | – |
| GTEQTRQSGQNQQT | – | – | – | – | 1.188 fold | 0.132 fold | 0.756 fold | 0.756 fold |
| GTHPYTSSGQNQQT | 2.775 fold | 1.684 fold | 0.758 fold | 0.471 fold | – | – | – | – |
| GTPTSPSSGQNQQT | 1.086 fold | 4.558 fold | 0.833 fold | 0.662 fold | – | – | – | – |
| GTREMPLSGQNQQT | 2.339 fold | 2.830 fold | 1.436 fold | 0.538 fold | – | – | – | – |
| GTTAHQPSGQNQQT | – | – | – | – | 1.138 fold | 0.211 fold | 0.726 fold | 0.275 fold |
| GVAFIGSSGQNQQT | 1.043 fold | 0.000 fold | 0.744 fold | 0.648 fold | – | – | – | – |
| GVAGSLVSGQNQQT | 2.358 fold | 7.670 fold | 1.321 fold | 1.160 fold | – | – | – | – |
| GVGVITSSGQNQQT | – | – | – | – | 1.348 fold | 0.918 fold | 1.296 fold | 0.777 fold |
| GVHDMRVSGQNQQT | 1.032 fold | 8.083 fold | 1.171 fold | 0.818 fold | – | – | – | – |
| GVHSLTPSGQNQQT | 1.687 fold | 4.104 fold | 0.475 fold | 0.215 fold | – | – | – | – |
